These results are taken from ChEMBL document CHEMBL5385873, “Analogues of natural products yaequinolones as potential inflammatory inhibitors: Design, synthesis and biological evaluation” (Eur J Med Chem, 2023).

Each structure is given as a SMILES string. Calls of active or inactive are those of the source. No cut-off for these calls is given here.

Type in all cases: functional, cell-based
The test system of assay [1] is RAW264.7. As to the kind of experiment: Cytotoxicity against mouse RAW264.7 cells assessed as reduction in cell viability at <50 uM incubated for 24 hrs by MTT assay. (In general: Tetrazolium dyes change colour on reduction, which living cells bring about.)
The subject of assay [2] is RAW264.7. As to the kind of experiment: Antiinflammatory activity in mouse RAW264.7 cells assessed as inhibition of LPS-induced NO production at 2 uM incubated for 24 hrs.
The test system of assay [3] is RAW264.7. The assay is described as follows: Antiinflammatory activity in mouse RAW264.7 cells assessed as inhibition of LPS-induced NO production at 1 uM incubated for 24 hrs.
Assay [4] concerns RAW264.7. As to the kind of experiment: Cytotoxicity against mouse RAW264.7 cells assessed as reduction in cell viability at 2 to 10 uM incubated for 24 hrs by MTT assay. As to conditions: dose 2-10 µM.
For assay [5], the system named is RAW264.7. The assay is described as follows: Antiinflammatory activity in mouse RAW264.7 cells assessed as inhibition of LPS-induced NO production at 0.1 uM incubated for 24 hrs.
Assay [6] deals with RAW264.7. As to the kind of experiment: Antiinflammatory activity in mouse RAW264.7 cells assessed as inhibition of LPS-induced NO production at 0.05 uM incubated for 24 hrs.
Assay [7] relates to RAW264.7. As to the kind of experiment: Antiinflammatory activity in mouse RAW264.7 cells assessed as inhibition of LPS-induced TNF-alpha expression at 0.1 uM measured after 24 hrs by ELISA method. (ELISA stands for enzyme-linked immunosorbent assay.)
For assay [8], the system named is RAW264.7. The assay is described as follows: Cytotoxicity against mouse RAW264.7 cells assessed as reduction in cell viability at 10 uM incubated for 24 hrs by MTT assay.
In assay [9] the test system is RAW264.7. As to the kind of experiment: Antiinflammatory activity in mouse RAW264.7 cells assessed as inhibition of LPS-induced NO production at 0.2 uM incubated for 24 hrs.
In assay [10] the test system is RAW264.7. The assay is described as follows: Antiinflammatory activity in mouse RAW264.7 cells assessed as inhibition of LPS-induced TNF-alpha expression at 0.2 uM measured after 24 hrs by ELISA method.
Assay [11] relates to RAW264.7. The assay is described as follows: Antiinflammatory activity in mouse RAW264.7 cells assessed as reduction in LPS-induced IL-6 level at 0.2 uM measured after 24 hrs by ELISA method.

`COc1ccc2c(c1)c(CC(=O)O)c(C)n2C(=O)c1ccc(Cl)cc1`: the result with RAW264.7 [1] and in the assay with RAW264.7 [2] was inactive.

Turning to `CO[C@@H]1C(=O)Nc2ccc3c(c2[C@@]1(O)c1ccc(C(F)(F)F)cc1)O[C@@](C)(CCC=C(C)C)C=C3` (racemic), the outcome with RAW264.7 [3], in the assay with RAW264.7 [4] and in the assay with RAW264.7 [5] was Active. Moreover, the outcome with RAW264.7 [6] and in the assay with RAW264.7 [7] was inactive.

Take `CO[C@@H]1C(=O)Nc2ccccc2[C@@]1(O)c1ccccc1` (relative stereo): the outcome in the assay with RAW264.7 [8], in the assay on RAW264.7 [9] and in the assay on RAW264.7 [10] was Active. Further, the outcome in the assay on RAW264.7 [11] was inactive.

With `COc1cccc2c1[C@@](O)(c1ccccc1)[C@H](OC)C(=O)N2` (relative stereo), the outcome in the assay on RAW264.7 [8], with RAW264.7 [9], with RAW264.7 [10] and in the assay with RAW264.7 [11] was Active.
